Measured values from BigSolDB 2.1.

Row | SMILES | solubility (mole fraction) (in 2-butanone, 298 K) | solubility (mole fraction) (in 2-butanone, 303 K) | solubility (mole fraction) (in 2-butanone, 308 K) | solubility (mole fraction) (in 2-butanone, 313 K) | solubility (mole fraction) (in 2-butanone, 318 K) | solubility (mole fraction) (in acetonitrile, 298 K) | solubility (mole fraction) (in acetonitrile, 303 K) | solubility (mole fraction) (in acetonitrile, 308 K) | solubility (mole fraction) (in acetonitrile, 313 K) | solubility (mole fraction) (in acetonitrile, 318 K) | solubility (mole fraction) (in isopropanol, 298 K) | solubility (mole fraction) (in isopropanol, 303 K) | solubility (mole fraction) (in isopropanol, 308 K) | solubility (mole fraction) (in isopropanol, 313 K) | solubility (mole fraction) (in isopropanol, 318 K)
1 | O=C1c2ccccc2C(=O)c2ccccc21 | 0.00054 | 0.00062 | 0.00075 | 0.00087 | 0.001 | 0.00022 | 0.00026 | 0.00032 | 0.00039 | 0.00048 | 8e-05 | 0.0001 | 0.00012 | 0.00015 | 0.00018
2 | c1ccc2cc3ccccc3cc2c1 | 0.00477 | 0.00591 | 0.00712 | 0.0085 | 0.0134 | 0.00066 | 0.00093 | 0.00135 | 0.00196 | 0.0027 | 0.00034 | 0.00044 | 0.00061 | 0.00081 | 0.00111
